Results as given in publication PMC9322052, “Synthesis and Biological Activity Screening of Newly Synthesized Trimethoxyphenyl-Based Analogues as Potential Anticancer Agents” (Molecules, 2022).

Columns and labels:
eight cancer cell lines = test system: eight cancer cell lines; set-up: method as in PMID 23547728; settings: read-out: average IC50 over eight cancer cell lines; cited from earlier work
PC-3 cell line = test system: PC-3 cell line; set-up: method as in doi:10.1016/j.arabjc.2021.103644; settings: read-out: IC50, antiproliferative activity; cited from earlier work
MGC-803 cell line = test system: MGC-803 cell line; set-up: method as in doi:10.1016/j.arabjc.2021.103644; settings: read-out: IC50, antiproliferative activity; cited from earlier work
HCT-116 cell line = test system: HCT-116 cell line; set-up: method as in doi:10.1016/j.arabjc.2021.103644; settings: read-out: IC50, antiproliferative activity; cited from earlier work
A-594 cell line = test system: A-594 cell line; set-up: method as in doi:10.1016/j.arabjc.2021.103644; settings: read-out: IC50, antiproliferative activity; cited from earlier work
EC-109 cell line = test system: EC-109 cell line; set-up: method as in doi:10.1016/j.arabjc.2021.103644; settings: read-out: IC50, antiproliferative activity; cited from earlier work
[1] = test system: hepatocellular carcinoma HepG2 cell line; experiment: MTT cytotoxicity assay, HepG2; format: cell-based, human; settings: Homo sapiens, HepG2, 24 h treatment, mean ± SE
Experimental: (§1) All the newly synthesized analogs were evaluated for their in vitro cytotoxicity against the hepatocellular carcinoma HepG2 cell line. Podo was utilized as a reference control in the current study. […] The N-phenyl triazinone derivative 9 was further investigated for its cytotoxic effects against normal liver cell line HL-7702.
(§2) MTT colorimetric assay was carried out to investigate the impact of the newly synthesized compounds 2–11 on hepatocellular carcinoma (HepG2) and normal liver cell line (HL-7702) cell lines. See Section 3.3.1 in Supplementary Material.
(§3) 3.3.1. Cytotoxic activity evaluation
To measure the cytotoxic activity of the synthesized derivatives 2a-11 in hepatocel-lular carcinoma (HepG2) cell line (ATCC Cat No. HB-8065) as well as normal human liver cell line HL-7702 (ATCC Cat. No. 77402), cell viability assay was assessed using MTT assay method. Cells at density of 1 x 104 were seeded in a 96-well plate at 37 °C for 24 h under 5% CO2. After incubation, the cells were treated with different concentrations of the test compounds 2a-11 and incubated for 24 h, then 20 μl of MTT solution at 5 mg/mL was applied and incubated for 4 h at 37 °C. Dimethyl sulphoxide (DMSO) in volume of 100 µl was added to each well to dissolve the purple formazan that had formed. The color inten-sity of the formazan product, which represents the growth condition of the cells, is quan-tified by using an ELISA plate reader (EXL 800, USA) at 570 nm absorbance. The experi-mental conditions were carried out with at least three replicates, and the experiments were repeated at least three times.
3.3.2. Tubulin inhibitions Assay
(§4) Compounds 9, 10 and 11 were evaluated for their tubulin inhibitory activity levels according to the manufacturer’s instructions using # abcam Human Beta-tubulin simplestep […]
3.3.3. Cell cycle analysis of compound 9
Cell cycle analysis in HepG2 cells was investigated using fluorescent Annexin V-FITC/ PI detection kit (BioVision EZCellTM Cell Cycle Analysis Kit Catalog #K920) by flow cytometry assay. HepG2 cells at a density of 2 × 10^5 per well were harvested and washed twice in PBS. After that, the cells were incubated at 37 °C and 5% CO2. […] Afterward, medium was stained with DNA flu-orochrome PI for 15 min at 37 °C. The samples were immediately analyzed using Facs Calibur flow cytometer (Becton and Dickinson, Heidelberg, Germany).
3.3.4. Apoptosis assay for compound 9
Apoptosis in HepG2 cells was investigated using fluorescent Annexin V-FITC/ PI de-tection kit (BioVision Annexin V-FITC Apoptosis Detection Kit, Catalog #: K101) by flow cy-tometry assay. HepG2 cells at a density of 2 × 10^5 per well were treated with compound 9 at its IC50 (μM) for 48 h, then the cells were harvested and stained with Annexin V-FITC/ PI dye for 15 min in the dark at 37 °C. The samples were immediately analyzed using FACS Calibur flow cytometer (Becton and Dickinson, Heidelberg, Germany).
3.3.5. Measurement of mitochondrial membrane potential (MMP) for compound 9 MMP was measured by FACS analysis using abcam ab113852TMRE Mitochondrial Membrane Potential Assay Kit with DiOC2(3) staining using MitoProbe™ DiOC2(3) Assay Kit for Flow Cytometry (M34150). After treatment with compound 9 at its IC50 concentra-tion, cells were stained with DiOC2(3) dye for 30 min in the incubator, then harvested and washed with PBS. DiOC2(3)-stained cells were represented with Annexin binding buffer and incubated at 37 °C for 15 min. The samples were immediately analyzed using cell […]
3.3.6. Effect on p53, Bax and Bcl-2 p53, Bax and Bcl2 enzyme activities in HepG2 cells were detected in the presence of com-pound 9 at its IC50 concentration (μM). The levels of the tumor suppressor gene p53, apoptotic markers Bax as well as the anti-apoptotic marker Bcl-2 were assessed using p53 ELISA kit, Human Bax ELISA kit and Bcl-2 Elisa kit. […]

[2] = test system: normal liver cell line HL-7702; experiment: MTT cytotoxicity assay, normal liver cells; format: cell-based; settings: Homo sapiens, L02, 24 h treatment, mean ± SE
Experimental: as §1, §2, §3
To measure the cytotoxic activity of the synthesized derivatives 2a-11 in hepatocel-lular carcinoma (HepG2) cell line (ATCC Cat No. HB-8065) as well as normal human liver cell line HL-7702 (ATCC Cat. No. 77402), cell viability assay was assessed using MTT assay method. Cells at density of 1 x 104 were seeded in a 96-well plate at 37 °C for 24 h under 5% CO2. […] The color inten-sity of the formazan product, which represents the growth condition of the cells, is quan-tified by using an ELISA plate reader (EXL 800, USA) at 570 nm absorbance. […]
as §4
3.3.5. […] The samples were immediately analyzed using cell […]

β-tubulin = experiment: Tubulin polymerization inhibition (beta-tubulin ELISA in HepG2 cells); format: cell-based, human
Experimental: The selected candidates were tested at a concentration equal to their IC50 concentration dose value. […] See Section 3.3.2 in Supplementary Material. […] page 18: 3.3. Biological studies 3.3.1. Cytotoxic activity evaluation To measure the cytotoxic activity of the synthesized derivatives 2a-11 in hepatocel- lular carcinoma (HepG2) cell line (ATCC Cat No. HB-8065) as well as normal human liver cell line HL-7702 (ATCC Cat. No. 77402), cell viability assay was assessed using MTT assay method. Cells at density of 1 x 104 were seeded in a 96-well plate at 37 °C for 24 h under 5% CO2. After incubation, the cells were treated with different concentrations of the test compounds 2a-11 and incubated for 24 h, then 20 μl of MTT solution at 5 mg/mL was […] Dimethyl sulphoxide (DMSO) in volume of 100 μl was added to each well to dissolve the purple formazan that had formed. The color […] of the formazan product, which represents the growth condition of the cells, is quan- […] by using an ELISA plate reader (EXL 800, USA) at 570 nm absorbance. The experi- mental conditions were carried out with at least three replicates, and the experiments were repeated at least three times. 3.3.2. Tubulin inhibitions Assay […] according to the manufacturer's instructions using # abcam Human Beta-tubulin […] ELISA Kit ab245722. 3.3.3. Cell cycle analysis of compound 9 Cell cycle analysis in HepG2 cells was investigated using fluorescent Annexin V- FITC/ PI detection kit (BioVision EZCellTM Cell Cycle Analysis Kit Catalog #K920) by flow cytometry assay. […] twice in PBS. After that, the cells were incubated at 37 °C and 5% CO2. […] Apoptosis assay for compound 9 Apoptosis in HepG2 cells was investigated using fluorescent Annexin V-FITC/ PI de- tection kit (BioVision Annexin V-FITC Apoptosis Detection Kit, Catalog #: K101) by flow cy- tometry assay. […] The samples were immediately analyzed using FACS Calibur flow cytometer (Becton and Dickinson, Heidelberg, Germany). 3.3.5. Measurement of mitochondrial membrane potential (MMP) for compound 9 MMP was measured by FACS analysis using abcam ab113852TMRE Mitochondrial Membrane Potential Assay Kit with DiOC2(3) staining using MitoProbeTM DiOC2(3) Assay Kit for Flow Cytometry (M34150). After treatment with compound 9 at its IC50 concentra- tion, cells were stained with DiOC2(3) dye for 30 min in the incubator, then harvested and washed with PBS. […] The samples were immediately analyzed using cell Quest software. […] Effect on p53, Bax and Bcl-2 p53, Bax and Bcl2 enzyme activities in HepG2 cells were detected in the presence of com- pound 9 at its IC50 concentration (μM). The levels of the tumor suppressor gene p53, apoptotic markers Bax as well as the anti-apoptotic marker Bcl-2 were assessed using p53 ELISA kit, Human Bax ELISA kit and Bcl-2 Elisa kit. […]

## COc1cc(C(=O)c2nc(-c3ccccc3)c[nH]2)cc(OC)c1OC [RABI-112]
Eight cancer cell lines
  IC50: 14 nM

## COc1cc(Nc2nc(Cc3ccc(C(=O)/C=C/c4ccccn4)cc3)nnc2Cl)cc(OC)c1OC [V]
PC-3 cell line
  IC50: 610 nM
MGC-803 cell line
  IC50: 410 nM
HCT-116 cell line
  IC50: 430 nM
A-594 cell line
  IC50: 520 nM
EC-109 cell line
  IC50: 780 nM

## COc1cc([C@@H]2c3cc4c(cc3[C@H](O)[C@H]3COC(=O)[C@H]23)OCO4)cc(OC)c1OC [podo, podophyllotoxin, reference compound]
[1]
  IC50: 2.08 ± 0.04 µM
[2]
  IC50: 18.6 ± 0.58 µM
β-tubulin
  β-tubulin polymerization inhibition percentage: 91.32%
